Laboratory results reported in ChEMBL document CHEMBL3091407, “Synthesis of Novel 3,5-Disubstituted-2-oxindole Derivatives As Antitumor Agents against Human Nonsmall Cell Lung Cancer” (ACS Med Chem Lett, 2013).
Calls of active or inactive are those of the source. The rule behind the calls is not given here.

What was measured:
MDA-MB-231 [1] = assay: Selectivity for human HCC827 cells over human MDA-MB-231 cells; format: functional
A549 [2] = assay: Inhibition of Akt phosphorylation at Ser473 site in human A549 cells at IC50 after 72 hrs by ELISA; format: cell-based
A549 [3] = assay: Inhibition of Akt phosphorylation at Thr308 site in human A549 cells at IC50 after 72 hrs by ELISA; format: cell-based
A549 [4] = assay: Cell cycle arrest in human A549 cells assessed as decrease in G2 cells at IC50 after 24 hrs followed by compound washout by propidium iodide staining-based FACS analysis; format: functional; set-up: scale not given: the % may be the effect or the level left
A549 [5] = assay: Cell cycle arrest in human A549 cells assessed as decrease in S cells at IC50 after 24 hrs followed by compound washout by propidium iodide staining-based FACS analysis; format: functional; set-up: scale not given: the % may be the effect or the level left
A549 [6] = assay: Cell cycle arrest in human A549 cells assessed as decrease in G1 cells at IC50 after 24 hrs followed by compound washout by propidium iodide staining-based FACS analysis; format: functional; set-up: scale not given: the % may be the effect or the level left
A549 [7] = assay: Induction of apoptosis in human A549 cells assessed as cellular rupture into debris at IC50 by fluorescence microscopy; format: functional, cell-based
A549 [8] = assay: Induction of apoptosis in human A549 cells assessed as nuclear fragmentation at IC50 by fluorescence microscopy; format: functional, cell-based
A549 [9] = assay: Induction of apoptosis in human A549 cells assessed as cell shrinkage at IC50 by fluorescence microscopy; format: functional, cell-based
A549 [10] = assay: Ratio of sunitinib IC50 to compound IC50 for human A549 cells; format: functional
A549 [11] = assay: Cytotoxicity against human A549 cells at 0.01 to 100 uM by haemocytometry; format: functional, cell-based; conditions: TDE = time-dependent effect
A549 [12] = assay: Ratio of perifosine IC50 to compound IC50 for human A549 cells; format: functional
A549 [13] = assay: Cytotoxicity against human A549 cells after 24 to 72 hrs by haemocytometry; format: functional, cell-based
A549 [14] = assay: Induction of apoptosis in human A549 cells assessed as apoptotic index at IC50 by fluorescence microscopy relative to control; format: functional
A549 [15] = assay: Inhibition of Akt phosphorylation at Thr308 site in human A549 cells at 10 uM after 3 hrs followed by 10 mins incubation in 10% FBS by Western blotting analysis; format: cell-based
[16] = Cytotoxicity against human HCC827 cells after 24 to 72 hrs by haemocytometry; format: functional, cell-based
MDA-MB-231 [17] = assay: Cytotoxicity against human MDA-MB-231 cells at 1 to 10 uM after 72 hrs by haemocytometry; format: functional, cell-based
A549 [18] = assay: Inhibition of Akt phosphorylation in human A549 cells assessed as inhibition of FoxO3a phosphorylation at Thr32 at 10 uM after 3 hrs followed by 10 mins incubation in 10% FBS by Western blotting analysis; format: cell-based
A549 [19] = assay: Inhibition of Akt phosphorylation in human A549 cells assessed as inhibition of FoxO1 phosphorylation at Thr24 at 10 uM after 3 hrs followed by 10 mins incubation in 10% FBS by Western blotting analysis; format: cell-based
[20] = target: Receptor tyrosine-protein kinase erbB-2 (Homo sapiens) (UniProt P04626); assay: Inhibition of Her2 phosphorylation at Tyr1221/1222 in human A549 cells at 10 uM after 3 hrs followed by 10 mins incubation in 10% FBS by Western blotting analysis; format: cell-based
Sequence of Receptor tyrosine-protein kinase erbB-2 (Homo sapiens) (P04626 whole entry): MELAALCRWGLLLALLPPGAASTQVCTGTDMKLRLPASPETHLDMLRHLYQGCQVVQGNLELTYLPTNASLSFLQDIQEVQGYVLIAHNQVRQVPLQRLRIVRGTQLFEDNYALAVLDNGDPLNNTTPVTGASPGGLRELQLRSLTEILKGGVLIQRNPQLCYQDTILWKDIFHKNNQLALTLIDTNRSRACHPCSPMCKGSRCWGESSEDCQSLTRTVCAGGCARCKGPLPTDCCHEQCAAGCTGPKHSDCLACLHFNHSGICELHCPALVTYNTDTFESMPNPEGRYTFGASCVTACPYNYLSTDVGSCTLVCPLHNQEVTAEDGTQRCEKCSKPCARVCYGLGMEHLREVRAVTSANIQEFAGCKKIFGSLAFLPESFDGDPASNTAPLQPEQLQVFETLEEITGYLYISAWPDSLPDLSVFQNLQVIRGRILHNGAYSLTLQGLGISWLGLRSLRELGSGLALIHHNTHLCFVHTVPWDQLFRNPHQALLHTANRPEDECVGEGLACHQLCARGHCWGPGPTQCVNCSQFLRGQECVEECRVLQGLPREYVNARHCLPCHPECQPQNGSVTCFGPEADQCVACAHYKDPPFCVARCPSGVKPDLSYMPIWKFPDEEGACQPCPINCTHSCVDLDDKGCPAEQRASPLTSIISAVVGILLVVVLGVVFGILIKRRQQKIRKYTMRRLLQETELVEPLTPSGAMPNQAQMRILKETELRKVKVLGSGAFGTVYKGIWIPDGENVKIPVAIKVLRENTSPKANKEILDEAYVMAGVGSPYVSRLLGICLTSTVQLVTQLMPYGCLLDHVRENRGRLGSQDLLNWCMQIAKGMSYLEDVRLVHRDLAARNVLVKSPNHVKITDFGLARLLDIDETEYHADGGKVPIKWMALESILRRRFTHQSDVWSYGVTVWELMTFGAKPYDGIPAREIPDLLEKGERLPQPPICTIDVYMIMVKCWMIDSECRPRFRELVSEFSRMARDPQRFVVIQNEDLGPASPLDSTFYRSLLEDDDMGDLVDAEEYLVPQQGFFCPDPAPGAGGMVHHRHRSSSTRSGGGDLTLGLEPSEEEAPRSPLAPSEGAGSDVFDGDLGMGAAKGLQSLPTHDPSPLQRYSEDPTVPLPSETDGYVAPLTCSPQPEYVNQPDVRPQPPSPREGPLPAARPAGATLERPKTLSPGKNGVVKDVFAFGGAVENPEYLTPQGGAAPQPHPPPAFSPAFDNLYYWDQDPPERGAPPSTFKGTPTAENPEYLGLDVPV

[21] = target: Epidermal growth factor receptor (Homo sapiens) (UniProt P00533); assay: Inhibition of EGFR phosphorylation at […] in human A549 cells at 10 uM after 3 hrs followed by 10 mins incubation in 10% FBS by Western blotting analysis; format: cell-based
Sequence of Epidermal growth factor receptor (Homo sapiens) (P00533 whole entry): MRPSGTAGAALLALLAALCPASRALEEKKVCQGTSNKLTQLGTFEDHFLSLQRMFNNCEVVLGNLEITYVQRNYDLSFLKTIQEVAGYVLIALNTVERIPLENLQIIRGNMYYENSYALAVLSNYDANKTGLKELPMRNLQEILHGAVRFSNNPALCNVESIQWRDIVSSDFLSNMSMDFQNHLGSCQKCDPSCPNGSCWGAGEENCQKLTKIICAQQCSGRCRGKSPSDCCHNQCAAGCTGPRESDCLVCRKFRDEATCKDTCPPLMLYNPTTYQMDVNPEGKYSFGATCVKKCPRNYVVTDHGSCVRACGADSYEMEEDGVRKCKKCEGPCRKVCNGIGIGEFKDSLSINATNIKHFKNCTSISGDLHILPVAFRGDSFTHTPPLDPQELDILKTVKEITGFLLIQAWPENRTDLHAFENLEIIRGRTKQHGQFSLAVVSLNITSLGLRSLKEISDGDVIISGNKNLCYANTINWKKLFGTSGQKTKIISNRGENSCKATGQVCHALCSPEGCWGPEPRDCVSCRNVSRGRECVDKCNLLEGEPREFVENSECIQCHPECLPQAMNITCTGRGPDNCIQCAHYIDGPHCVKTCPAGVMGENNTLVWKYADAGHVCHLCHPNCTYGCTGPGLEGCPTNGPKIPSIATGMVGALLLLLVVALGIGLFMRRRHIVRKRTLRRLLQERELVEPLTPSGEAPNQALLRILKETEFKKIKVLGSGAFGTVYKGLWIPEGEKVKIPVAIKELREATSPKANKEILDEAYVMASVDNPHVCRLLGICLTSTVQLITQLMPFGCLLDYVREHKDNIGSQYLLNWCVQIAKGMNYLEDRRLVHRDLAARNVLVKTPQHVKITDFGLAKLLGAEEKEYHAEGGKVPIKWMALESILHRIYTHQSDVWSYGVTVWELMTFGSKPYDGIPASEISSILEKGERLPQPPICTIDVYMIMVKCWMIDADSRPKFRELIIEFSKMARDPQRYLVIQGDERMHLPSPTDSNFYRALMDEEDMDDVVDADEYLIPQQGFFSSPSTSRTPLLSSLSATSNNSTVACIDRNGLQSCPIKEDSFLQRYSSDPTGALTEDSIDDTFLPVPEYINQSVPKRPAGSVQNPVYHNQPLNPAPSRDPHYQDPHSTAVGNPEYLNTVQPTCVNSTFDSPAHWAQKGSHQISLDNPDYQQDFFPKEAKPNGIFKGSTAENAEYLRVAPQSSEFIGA

| Compound | inhibition (A549 [2]) [%] | inhibition (A549 [3]) [%] | Activity (A549 [4]) [%] | Activity (A549 [5]) [%] | Activity (A549 [6]) [%] | Activity (A549 [7]) | Activity (A549 [8]) | Activity (A549 [9]) | Ratio IC50 (A549 [10]) | Activity (A549 [11]) | Ratio IC50 (A549 [12]) | Activity (A549 [13]) | IC50 (A549 [13]) [µM] | Activity (A549 [14]) [%] | other results |
| --- | --- | --- | --- | --- | --- | --- | --- | --- | --- | --- | --- | --- | --- | --- | --- |
| COc1cc2ncnc(Nc3ccc(F)c(Cl)c3)c2cc1OCCCN1CCOCC1 [GEFITINIB] |  |  |  |  |  |  |  |  |  |  |  |  |  |  | Selectivity ratio (MDA-MB-231 [1]): 1700 |
| COc1cc2c(cc1OC)CN(CC(=O)Nc1ccc3c(c1)/C(=C/c1cnc[nH]1)C(=O)N3)CC2 | 20 | 20 | -0.61 | -0.51 | -0.1 | Active | Active | Active | 2.5 | tde | 2 | Dose-dependent effect | 2.19 |  |  |
| CCCCCCCCCCCCCCCCCCOP(=O)([O-])OC1CC[N+](C)(C)CC1 [PERIFOSINE] |  |  | -14.51 | -4.05 | 18.56 |  |  |  |  | tde |  | Dose-dependent effect | 4.17 | 32 |  |
| COc1cc2c(cc1OC)CN(CC(=O)Nc1ccc3c(c1)/C(=C/c1cccs1)C(=O)N3)CC2 | 20 | 20 | -11.2 | -10.23 | 21.04 | Active | Active | Active | 2.5 | tde | 2 | Dose-dependent effect | 0.66 | 24 | inhibition (A549 [15]): Active; IC50 [16]: 0.045 µM; Activity (MDA-MB-231 [17]): inactive; inhibition (A549 [18]): Active; inhibition (A549 [19]): Active; inhibition [20]: inactive; inhibition [21]: inactive |
| COc1cc2c(cc1OC)CN(CC(=O)Nc1ccc3c(c1)/C(=C\c1ccccn1)C(=O)N3)CC2 | 20 | 20 | 1.69 | -2.75 | 1.06 | Active | Active | Active |  | tde |  | Dose-dependent effect | 19.9 |  |  |
| COc1cc2c(cc1OC)CN(CC(=O)Nc1ccc3c(c1)/C(=C\c1nccn1C)C(=O)N3)CC2 | 20 | 20 | -0.48 | 1.33 | -0.85 | Active | Active | Active | 2.5 | tde | 2 | Dose-dependent effect | 2.75 |  | inhibition (A549 [15]): Active; Activity (MDA-MB-231 [17]): inactive; inhibition (A549 [18]): Active; inhibition (A549 [19]): Active; inhibition [20]: inactive; inhibition [21]: inactive |
| COc1cc2c(cc1OC)CN(CC(=O)Nc1ccc3c(c1)CC(=O)N3)CC2 | 20 | 20 | -14.25 | -4.99 | 19.24 | Active | Active | Active |  | tde |  | Dose-dependent effect | 16.2 | 12 |  |
